Source: patent US8748113B2, “Methods for detecting and monitoring circulating cancer stem cells” (The Johns Hopkins University, priority 2007, dated 2014)
Entries after “also recorded” stand apart in the source; their conditions may differ.

What was measured:
Assay type in all cases: cell-based, human
[1] = system: CD138+ plasma cells from the RPMI 8226 and NCI-H929 MM cell lines; test: Clonogenic growth of CD138+ plasma cells isolated from MM cell lines; conditions: FIGS. 10A and B, P<0.02 compared to the untreated control
[2] = system: CD138neg MM progenitors derived from primary clinical specimens; test: Clonogenic recovery of CD138neg MM progenitors from primary clinical samples; conditions: 4 MM patients; FIG. 10C; P>0.2 compared to the untreated control
clonogenic MM cells = test: In vitro clonogenic growth of MM precursors (summary statements); conditions: summary statement
Text: Many agents are active in multiple myeloma (MM), but the majority of patients relapse. […] We further characterized clonogenic MM cells and stained cell lines using the Hoechst side population and Aldefluor assays. […] Furthermore, both the side population and Aldefluor assays were capable of identifying circulating clonotypic memory B cell populations within the peripheral blood of MM patients.
CD138^− precursors or CD138^+ plasma cells were isolated from the RPMI 8226 or NCI-H929 cell lines and treated with each of the two humanized monoclonal antibodies, rituximab or alemtuzumab, and in combination with human complement that strongly enhances their in vitro activity through complement dependent cytoxicity. Neither complement alone nor the monoclonal antibodies with or without complement affected the clonogenic growth of CD138^+ plasma cells that lack the target antigens (FIG. 8B; P>0.3 for all groups compared to the untreated control).
Although stem cells have been identified in an increasing number of human cancers, the clinical relevance and implications of these findings remain unclear. Standard response criteria used to measure the clinical efficacy of anti-cancer treatments primarily reflect changes in disease bulk and activity against mature tumor cells. Since cancer stem cells are a relatively low frequency population in most tumor types, the true inhibition of these cells is likely to be difficult to assess early following treatment, and a prolongation of disease remission would be required to establish such activity. The initial clinical responses induced by dexamethasone, lenalidomide, bortezomib and cyclophosphamide seen as decreased bone marrow plasmacytosis and monoclonal Ig levels in MM likely reflect the activity of these agents against mature MM plasma cells. […] It is well known that the anti-tumor activity of these agents is mediated in part by modulating the interaction between myeloma plasma cells and bone marrow stromal cells.
Our results complement a recent report describing the relative radioresistance of glioblastoma cancer stem cells compared to the differentiated cells that make up the bulk of the tumor mass. The stark biological differences between cancer stem cells and mature tumor cells is likely to be representative of many other malignancies as the clinical pattern of relapse following effective treatment can be seen in most human cancers. Therefore, therapeutic strategies that target the specific biology of cancer stem cells are likely required to prevent the continued production of mature tumor cells and produce sustained remissions. […] Therefore, optimal clinical strategies may require combining agents active against MM plasma cells to decrease tumor burden and alleviate symptoms with those that target MM cancer stem cells to prevent tumor regrowth and relapse.

CC(C)C[C@H](NC(=O)[C@H](Cc1ccccc1)NC(=O)c1cnccn1)B(O)O [bortezomib]
clonogenic growth of CD138+ plasma cells [1]: inhibited | effect on clonogenic MM precursors from patients [2]: not significantly affected | effect of anti-myeloma agents on CD138neg precursors / clonogenic MM progenitors (clonogenic MM cells): little effect; also recorded: similarly resistant

Nc1cccc2c1CN(C1CCC(=O)NC1=O)C2=O (stereo not drawn) [lenalidomide]
clonogenic growth of CD138+ plasma cells [1]: inhibited | effect on clonogenic MM precursors from patients [2]: not significantly affected | effect of anti-myeloma agents on CD138neg precursors / clonogenic MM progenitors (clonogenic MM cells): similarly resistant | effect of anti-myeloma agents on CD138neg precursors / clonogenic MM progenitors (clonogenic MM cells; listed as lenadilomide): little effect

Rituximab: humanized monoclonal antibody that targets the B-cell antigen CD20
effect of antibodies on clonogenic MM cells (clonogenic MM cells): inhibit clonogenic MM cells

alemtuzumab: humanized monoclonal antibody that targets the B-cell antigen CD52
effect of antibodies on clonogenic MM cells (clonogenic MM cells): inhibit clonogenic MM cells
